Reference: US20210244720A1, “Therapeutic Tyrosine Kinase Inhibitors for Relapsing Multiple Sclerosis (RMS)” (Genzyme Corporation, priority 2020, published 2021)

Test system: participants with relapsing multiple sclerosis (RMS)
Assay: Phase 2b study in RMS: safety and tolerability (adverse events, laboratory tests, ECG, vital signs)
Details: for proportion of participants with TEAEs: treatment period
[1] = 60 mg, 12 weeks treatment, n = 32
[2] = 60 mg, BTK inhibitor treatment period, safety population, N = 32
[3] = 60 mg, BTK inhibitor treatment period, safety population, N = 33
[4] = 12-week treatment period, 15 mg
[5] = 12-week treatment period, 30 mg
[6] = 12-week treatment period, 60 mg
[7] = All Dose Groups, 12 weeks treatment, N = 130
[8] = All Dose Groups, Weeks 1 to 12, N = 130
[9] = All, BTK inhibitor treatment period, safety population, N = 130

C=CC(=O)N1CCC[C@@H](n2c(=O)n(-c3ccc(Oc4ccccc4)cc3)c3c(N)nccc32)C1 [the BTK inhibitor, (R)-1-(1-acryloylpiperidin-3-yl)-4-amino-3-(4-phenoxyphenyl)-1H-imidazo[4,5-c]pyridin-2(3H)-one]
Nasopharyngitis, patients % [1]: (9%)
Nasopharyngitis, patients n [1]: 3
Oropharyngeal pain, patients % [1]: (3%)
Oropharyngeal pain, patients n [1]: 1
Peripheral edema, patients % [1]: (6%)
Peripheral edema, patients n [1]: 2
Respiratory tract infection, patients % [1]: (3%)
Respiratory tract infection, patients n [1]: 1
Upper respiratory tract infection, patients % [1]: (3%)
Upper respiratory tract infection, patients n [1]: 1
AESI, Alanice aminotransferase increased, n (%) [2]: 1 (3.1)
AESI, Investigations, n (%) [2]: 1 (3.1)
Any AESI, n (%) [2]: 1 (3.1)
Participants with any TEAE, % [3]: (54.5) %
Participants with any treatment-related TEAE, % [3]: (6.1) %
treatment-emergent SAE (60 mg, Cohort 1, MS relapse): One
AESI, Alanice aminotransferase increased, n (%) (60 mg, Weeks 1 to 4, N = 16): 0
AESI, Investigations, n (%) (60 mg, Weeks 1 to 4, N = 16): 0
Any AESI, n (%) (60 mg, Weeks 1 to 4, N = 16): 0
Participants with any TEAE, % (60 mg, Weeks 1 to 4, N = 33): (42.4) %
Participants with any treatment-related TEAE, % (60 mg, Weeks 1 to 4, N = 33): (9.1) %
Any AE, % (60 mg, Weeks 1 to 4, n = 16): (31.3%)
Any treatment-related AE, % (60 mg, Weeks 1 to 4, n = 16): (6.3%)
Any AE, % (60 mg, Weeks 1 to 12, n = 32): (50.0) %
Any treatment-related AE, % (60 mg, Weeks 1 to 12, n = 32): (21.9) %
Serious AE, % (60 mg, Weeks 1 to 12, n = 32): (3.1) %
correlation between dose administered and number of TEAEs (5-60 mg): no direct correlation
TEAE alanine aminotransferase increased (12-week treatment period, 5 mg): 1
TEAE alopecia (12-week treatment period, 5 mg): 1
TEAE back pain (12-week treatment period, 5 mg): 1
TEAE gastroenteritis (12-week treatment period, 5 mg): 1
TEAE headache (12-week treatment period, 5 mg): 1
TEAE nasopharyngitis (12-week treatment period, 5 mg): 1
TEAE oedema peripheral (12-week treatment period, 5 mg): 2
TEAE oropharyngeal pain (12-week treatment period, 5 mg): 1
TEAE upper respiratory tract infection (12-week treatment period, 5 mg): 2
TEAE alopecia [4]: 1
TEAE back pain [4]: 1
TEAE headache [4]: 3
TEAE respiratory tract infection [4]: 1
TEAE upper respiratory tract infection [4]: 2
TEAE alanine aminotransferase increased [5]: 1
TEAE back pain [5]: 2
TEAE headache [5]: 1
TEAE muscle spasticity [5]: 1
TEAE nasopharyngitis [5]: 1
TEAE oropharyngeal pain [5]: 1
TEAE respiratory tract infection [5]: 1
TEAE upper respiratory tract infection [5]: 1
TEAE accidental overdose [6]: 3
TEAE alanine aminotransferase increased [6]: 1
TEAE alopecia [6]: 1
TEAE gastroenteritis [6]: 2
TEAE headache [6]: 4
TEAE muscle spasticity [6]: 2
TEAE nasopharyngitis [6]: 3
TEAE oedema peripheral [6]: 2
TEAE oropharyngeal pain [6]: 1
TEAE respiratory tract infection [6]: 1
TEAE upper respiratory tract infection [6]: 1
tolerability (12 weeks of treatment): well-tolerated
Accidental overdose, patients n (%) [7]: 3 (2%)
Alanine aminotransferase increased, patients n (%) [7]: 3 (2%)
Alopecia, patients n (%) [7]: 3 (2%)
Back pain, patients n (%) [7]: 4 (3%)
Gastroenteritis, patients n (%) [7]: 3 (2%)
Headache, patients n (%) [7]: 9 (7%)
Muscle spasticity, patients n (%) [7]: 3 (2%)
Nasopharyngitis, patients n (%) [7]: 5 (4%)
Oropharyngeal pain, patients n (%) [7]: 3 (2%)
Peripheral edema, patients n (%) [7]: 4 (3%)
Respiratory tract infection, patients n (%) [7]: 3 (2%)
Upper respiratory tract infection, patients n (%) [7]: 6 (5%)
Any AE, % [8]: (53.8) %
Any treatment-related AE, % [8]: (13.1) %
Serious AE, % [8]: (0.8) %
AESI, Alanice aminotransferase increased, n (%) [9]: 2 (1.5)
AESI, Investigations, n (%) [9]: 2 (1.5)
Any AESI, n (%) [9]: 2 (1.5)
Participants with any TEAE, % [9]: (53.1) %
Participants with any severe TEAE, % [9]: (0.8) %
Participants with any treatment emergent SAE, % [9]: (0.8) %
Participants with any treatment-related TEAE, % [9]: (11.5) %
Participants with treatment emergent SAE(s), Any class, n(%) [9]: 1 (0.8)
Participants with treatment emergent SAE(s), Multiple sclerosis relapse, n(%) [9]: 1 (0.8)
Participants with treatment emergent SAE(s), NERVOUS SYSTEM DISORDERS, n(%) [9]: 1 (0.8)
Participants with any TEAE, % (All, Weeks 1 to 4, N = 130): (38.5) %
Participants with any treatment-related TEAE, % (All, Weeks 1 to 4, N = 130): (9.2) %
TEAE headache (Weeks 1 to 4, 5 mg): 3 cases
TEAE nausea (Weeks 1 to 4, 5 mg): 2 cases
proportion of participants who experienced TEAEs (Weeks 1 to 4, 5 mg): 31.3%
TEAE headache (Weeks 1 to 4, 15 mg): 2 cases
proportion of participants who experienced TEAEs (Weeks 1 to 4, 15 mg): 18.8%
TEAE nausea (Weeks 1 to 4, 30 mg): 1 cases
proportion of participants who experienced TEAEs (Weeks 1 to 4, 30 mg): 12.5%
TEAE headache (Weeks 1 to 4, 60 mg): 1 cases
proportion of participants who experienced TEAEs (Weeks 1 to 4, 60 mg): 31.3%
TEAE upper respiratory tract infection (Weeks 1 to 4, each treatment group): 1 case
TEAEs leading to permanent treatment discontinuation (all dose groups): no TEAEs leading to permanent treatment discontinuation
intensity of TEAEs (all dose groups): mild or moderate intensity except for one severe TEAE
PCSAs related to vital signs, labs and ECGs (multiple treatment groups): no dose relationship
proportion of participants with TEAEs (5 mg): 57.6%
proportion of participants with TEAEs (15 mg): 53.1%
proportion of participants with TEAEs (30 mg): 54.5%
proportion of participants with TEAEs (60 mg): 50.0%
AESIs (alanine aminotransferase increased >3×ULN) (whole study): two
deaths (whole study): No deaths
